{"source": "patent US20250313533A1", "about": "“QUINOLINE CARBOXYLIC ACID ESTER COMPOUND AND PREPARATION METHOD AND USE THEREOF” (priority 2019, published 2025)", "key": {"bacterial blight in rice": {"tested_on": "bacterial blight in rice", "assay": "whole plant or invertebrate", "details": "Oryza sativa, read-out: efficacy against bacterial blight in rice"}, "[1]": {"tested_on": "pathogenic bacteria causing bacterial wilt in cassava", "assay": "organism not typed", "format": "cell-based", "details": "read-out: inhibitory rate"}, "[2]": {"tested_on": "pathogenic bacteria causing bacterial blight in rice", "assay": "whole plant or invertebrate", "format": "cell-based, xanthomonas", "details": "read-out: inhibitory rate"}, "cucumber seedlings": {"tested_on": "cucumber seedlings", "assay": "Safety for plant growth after application", "format": "in vivo", "details": "dosage 200 ppm", "summary_of_the_method": "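Using pot-grown cucumber seedlings indoors, we recorded plant height growth rate together with chlorophyll content and leaf area following compound application.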"}, "[3]": {"tested_on": "bacterial wilt in tobacco", "assay": "whole plant or invertebrate", "details": "Nicotiana tabacum, read-out: efficacy against bacterial wilt in tobacco"}, "[4]": {"tested_on": "pathogenic bacteria causing bacterial wilt in tobacco", "assay": "whole plant or invertebrate", "format": "cell-based, ralstonia", "details": "read-out: inhibitory rate"}, "[5]": {"tested_on": "soft rot in Chinese cabbages", "assay": "whole plant or invertebrate", "details": "48 h, read-out: efficacy against soft rot in Chinese cabbages"}, "[6]": {"tested_on": "fruit blotch in watermelons", "assay": "whole plant or invertebrate", "details": "read-out: efficacy against fruit blotch in watermelons"}, "[7]": {"tested_on": "pathogenic bacteria causing stem rot in sweet potatoes", "assay": "In vitro bactericidal activity, stem rot in sweet potatoes", "format": "cell-based, dikia", "details": "read-out: inhibitory rate; for inhibition at 1 ppm: dosage 1 ppm; for inhibition at 5 ppm: dosage 5 ppm"}, "[8]": {"tested_on": "pathogenic bacteria causing black shank in potatoes", "assay": "In vitro bactericidal activity, black shank in potatoes", "format": "cell-based", "details": "read-out: inhibitory rate; for inhibition at 1 ppm: dosage 1 ppm; for inhibition at 5 ppm: dosage 5 ppm"}, "[9]": {"tested_on": "indoor potted cucumber seedlings", "assay": "Effect of improving growth and development of crops", "format": "in vivo", "parameters": "Rate of growth rate increase (%): concentration or dose not given beside the values", "details": "versus blank control; for Rate of chlorophyll content increase (%) / Rate of leaf area increase (%): 14 days after application; for Rate of growth rate increase (%): plant height 14 days after application; for Rate of leaf area increase (%): second leaf", "experimental": "Taking indoor potted cucumber seedlings as an example, the influence of the compound disclosed herein on growth rate of plant height, chlorophyll content, leaf area, etc. of crops was mainly evaluated.\nThe plant heights of plants before application and 14 days after the application were measured.\nThe growth rates were calculated according to formula (1)\nThe rates of the growth rate increase (%) were calculated according to formula (2)\nThe longitudinal and transverse diameters (i.e., leaf length and leaf width, respectively, wherein the leaf length is the distance from the base to the tip of a leaf, and leaf width is the measured value of the upper shoulder width of the leaf) of the second leaf of plants before application and 14 days after the application were measured.\nThe leaf areas were calculated according to formula (3)\nThe leaf area increases were calculated according to formula (4)\nThe rates of the leaf area increases were calculated according to formula (5)\nThe chlorophyll contents of leaves were measured by using a chlorophyll measuring instrument (model: SPAD-520 Plus).\nThe chlorophyll content increases were calculated according to formula (6)\nThe rates of the chlorophyll content increases were calculated according to formula (7)"}, "[10]": {"tested_on": "pathogenic bacteria causing fruit blotch in watermelons", "assay": "In vitro bactericidal activity, fruit blotch in watermelons", "format": "cell-based, acidovorax", "details": "read-out: inhibitory rate; for inhibition at 1 ppm: dosage 1 ppm; for inhibition at 5 ppm: dosage 5 ppm"}, "[11]": {"tested_on": "pathogenic bacteria causing black rot in Chinese cabbages", "assay": "In vitro bactericidal activity, black rot in Chinese cabbages", "format": "cell-based, xanthomonas", "details": "Xanthomonas, read-out: inhibitory rate; for inhibition at 1 ppm: dosage 1 ppm; for inhibition at 5 ppm: dosage 5 ppm"}, "[12]": {"tested_on": "stem rot in sweet potatoes", "assay": "whole plant or invertebrate", "details": "read-out: efficacy against stem rot in sweet potatoes"}, "black shank in potatoes": {"tested_on": "black shank in potatoes", "assay": "Living crops in vivo protective activity, potatoes (root irrigation)", "details": "Solanum tuberosum, read-out: efficacy against black shank in potatoes; for pest or weed control at 5 ppm: dosage 5 ppm; for pest or weed control at 10 ppm: dosage 10 ppm", "experimental": "Root irrigation was carried out on the potatoes for tests according to the designed concentration of the agents. The dosage for each plant was 200 mL and was kept consistent (also for the control). The black shank bacteria were inoculated on the second day after the application. The results were investigated according to the disease condition."}, "[13]": {"tested_on": "pathogenic bacteria causing bacterial angular leaf spot in cucumbers", "assay": "In vitro bactericidal activity, bacterial angular leaf spot in cucumbers", "format": "cell-based, pseudomonas", "details": "read-out: inhibitory rate; for inhibition at 1 ppm: dosage 1 ppm; for inhibition at 5 ppm: dosage 5 ppm"}, "[14]": {"tested_on": "pathogenic bacteria causing fire blight in pears", "assay": "In vitro bactericidal activity, fire blight in pears", "format": "cell-based, erwinia", "details": "Erwinia, read-out: inhibitory rate; for inhibition at 1 ppm: dosage 1 ppm; for inhibition at 5 ppm: dosage 5 ppm"}}, "data": [{"smiles": "COc1cc2c(cc1F)c(=O)c(C(=O)OCCCO)cn2C1CC1", "note": "[Compound 320]", "values": [{"measurement": "pest or weed control at 5 ppm", "setting": "bacterial blight in rice", "value": "≥ 90", "unit": "%"}, {"measurement": "pest or weed control at 10 ppm", "setting": "bacterial blight in rice", "value": "≥ 90", "unit": "%"}, {"measurement": "inhibition at 1 ppm", "setting": "[1]", "value": "≥ 90", "unit": "%"}, {"measurement": "inhibition at 5 ppm", "setting": "[1]", "value": "≥ 90", "unit": "%"}, {"measurement": "inhibition at 1 ppm", "setting": "[2]", "value": "≥ 90", "unit": "%"}, {"measurement": "inhibition at 5 ppm", "setting": "[2]", "value": "≥ 90", "unit": "%"}, {"measurement": "safety for plant growth (discoloration, necrosis, wilt, malformation)", "setting": "cucumber seedlings", "value": "safe for plant growth"}, {"measurement": "pest or weed control at 5 ppm", "setting": "[3]", "value": "≥ 90", "unit": "%"}, {"measurement": "pest or weed control at 10 ppm", "setting": "[3]", "value": "≥ 90", "unit": "%"}, {"measurement": "inhibition at 1 ppm", "setting": "[4]", "value": "≥ 90", "unit": "%"}, {"measurement": "inhibition at 5 ppm", "setting": "[4]", "value": "≥ 90", "unit": "%"}, {"measurement": "pest or weed control at 5 ppm", "setting": "[5]", "value": "≥ 90", "unit": "%"}, {"measurement": "pest or weed control at 10 ppm", "setting": "[5]", "value": "≥ 90", "unit": "%"}, {"measurement": "pest or weed control at 5 ppm", "setting": "[6]", "value": "≥ 90", "unit": "%"}, {"measurement": "pest or weed control at 10 ppm", "setting": "[6]", "value": "≥ 90", "unit": "%"}, {"measurement": "inhibition at 1 ppm", "setting": "[7]", "value": "≥ 90", "unit": "%"}, {"measurement": "inhibition at 5 ppm", "setting": "[7]", "value": "≥ 90", "unit": "%"}, {"measurement": "inhibition at 1 ppm", "setting": "[8]", "value": "≥ 90", "unit": "%"}, {"measurement": "inhibition at 5 ppm", "setting": "[8]", "value": "≥ 90", "unit": "%"}, {"measurement": "Rate of chlorophyll content increase (%)", "setting": "[9]", "value": 16, "unit": "%"}, {"measurement": "Rate of growth rate increase (%)", "setting": "[9]", "value": 14, "unit": "%"}, {"measurement": "Rate of leaf area increase (%)", "setting": "[9]", "value": 9, "unit": "%"}, {"measurement": "inhibition at 1 ppm", "setting": "[10]", "value": "≥ 90", "unit": "%"}, {"measurement": "inhibition at 5 ppm", "setting": "[10]", "value": "≥ 90", "unit": "%"}, {"measurement": "inhibition at 1 ppm", "setting": "[11]", "value": "≥ 90", "unit": "%"}, {"measurement": "inhibition at 5 ppm", "setting": "[11]", "value": "≥ 90", "unit": "%"}, {"measurement": "pest or weed control at 5 ppm", "setting": "[12]", "value": "≥ 90", "unit": "%"}, {"measurement": "pest or weed control at 10 ppm", "setting": "[12]", "value": "≥ 90", "unit": "%"}, {"measurement": "pest or weed control at 5 ppm", "setting": "black shank in potatoes", "value": "≥ 90", "unit": "%"}, {"measurement": "pest or weed control at 10 ppm", "setting": "black shank in potatoes", "value": "≥ 90", "unit": "%"}, {"measurement": "inhibition at 1 ppm", "setting": "[13]", "value": "≥ 90", "unit": "%"}, {"measurement": "inhibition at 5 ppm", "setting": "[13]", "value": "≥ 90", "unit": "%"}, {"measurement": "inhibition at 1 ppm", "setting": "[14]", "value": "≥ 90", "unit": "%"}, {"measurement": "inhibition at 5 ppm", "setting": "[14]", "value": "≥ 90", "unit": "%"}]}, {"smiles": "CNc1cc2c(cc1F)c(=O)c(C(=O)OCCOC)cn2C1CC1", "note": "[Compound 401]", "values": [{"measurement": "pest or weed control at 5 ppm", "setting": "bacterial blight in rice", "value": "≥ 90", "unit": "%"}, {"measurement": "pest or weed control at 10 ppm", "setting": "bacterial blight in rice", "value": "≥ 90", "unit": "%"}, {"measurement": "inhibition at 1 ppm", "setting": "[1]", "value": "≥ 90", "unit": "%"}, {"measurement": "inhibition at 5 ppm", "setting": "[1]", "value": "≥ 90", "unit": "%"}, {"measurement": "inhibition at 1 ppm", "setting": "[2]", "value": "≥ 90", "unit": "%"}, {"measurement": "inhibition at 5 ppm", "setting": "[2]", "value": "≥ 90", "unit": "%"}, {"measurement": "safety for plant growth (discoloration, necrosis, wilt, malformation)", "setting": "cucumber seedlings", "value": "safe for plant growth"}, {"measurement": "pest or weed control at 5 ppm", "setting": "[3]", "value": "≥ 90", "unit": "%"}, {"measurement": "pest or weed control at 10 ppm", "setting": "[3]", "value": "≥ 90", "unit": "%"}, {"measurement": "inhibition at 1 ppm", "setting": "[4]", "value": "≥ 90", "unit": "%"}, {"measurement": "inhibition at 5 ppm", "setting": "[4]", "value": "≥ 90", "unit": "%"}, {"measurement": "pest or weed control at 5 ppm", "setting": "[5]", "value": "≥ 90", "unit": "%"}, {"measurement": "pest or weed control at 10 ppm", "setting": "[5]", "value": "≥ 90", "unit": "%"}, {"measurement": "pest or weed control at 5 ppm", "setting": "[6]", "value": "≥ 90", "unit": "%"}, {"measurement": "pest or weed control at 10 ppm", "setting": "[6]", "value": "≥ 90", "unit": "%"}, {"measurement": "inhibition at 1 ppm", "setting": "[7]", "value": "≥ 90", "unit": "%"}, {"measurement": "inhibition at 5 ppm", "setting": "[7]", "value": "≥ 90", "unit": "%"}, {"measurement": "inhibition at 1 ppm", "setting": "[8]", "value": "≥ 90", "unit": "%"}, {"measurement": "inhibition at 5 ppm", "setting": "[8]", "value": "≥ 90", "unit": "%"}, {"measurement": "Rate of chlorophyll content increase (%)", "setting": "[9]", "value": 13, "unit": "%"}, {"measurement": "Rate of growth rate increase (%)", "setting": "[9]", "value": 10, "unit": "%"}, {"measurement": "Rate of leaf area increase (%)", "setting": "[9]", "value": 10, "unit": "%"}, {"measurement": "inhibition at 1 ppm", "setting": "[10]", "value": "≥ 90", "unit": "%"}, {"measurement": "inhibition at 5 ppm", "setting": "[10]", "value": "≥ 90", "unit": "%"}, {"measurement": "inhibition at 1 ppm", "setting": "[11]", "value": "≥ 90", "unit": "%"}, {"measurement": "inhibition at 5 ppm", "setting": "[11]", "value": "≥ 90", "unit": "%"}, {"measurement": "pest or weed control at 5 ppm", "setting": "[12]", "value": "≥ 90", "unit": "%"}, {"measurement": "pest or weed control at 10 ppm", "setting": "[12]", "value": "≥ 90", "unit": "%"}, {"measurement": "pest or weed control at 5 ppm", "setting": "black shank in potatoes", "value": "≥ 90", "unit": "%"}, {"measurement": "pest or weed control at 10 ppm", "setting": "black shank in potatoes", "value": "≥ 90", "unit": "%"}, {"measurement": "inhibition at 1 ppm", "setting": "[13]", "value": "≥ 90", "unit": "%"}, {"measurement": "inhibition at 5 ppm", "setting": "[13]", "value": "≥ 90", "unit": "%"}, {"measurement": "inhibition at 1 ppm", "setting": "[14]", "value": "≥ 90", "unit": "%"}, {"measurement": "inhibition at 5 ppm", "setting": "[14]", "value": "≥ 90", "unit": "%"}]}]}
